Marks after values point to notes of the source that are not given here. Where a SMILES comes first, the peptide text is derived from it. [ ]: non-standard residue; d: D form. Aib = CC(C)(N)C(=O)O
Legend:
Assay type in all cases: cell-based, human
caspase 9 = assay: Caspase 9 activation (FITC-LEHD-FMK, FACS analysis); settings: 48 h
Protocol: The activation of caspase-9 (mitochondrial apoptosis) and caspase-3 (activated downstream of caspase-9), was evaluated in cell lines (10^6 cells/well in a 24 wells plate) incubated with different concentrations of 072RB (1, 10 µM for 24h, 48h and 72h, in complete RPMI medium + 10% FCS at 37°C, using the caspase-9 and caspase-3 Detection Kit (Calbiochem, Darmstadt, Germany). The assay utilizes LEHD-FMK or DEVD-FMK conjugated to fluorescein-isothiocyanate (FITC) as caspase-9 or caspase-3 in situ marker. FITC-LEHD-FMK and FITC-DEVD-FMK are cell permeable, non toxic, and irreversibly bind only to activated caspase-9 or -3 in apoptotic cells. Samples were run on a flow cytometer (FACSort, Becton Dickinson) equipped with an argon ion laser exiting FITC at 488nm, At least 10^5 events were analysed for each sample using the CellQuest computer program. Data are expressed as Log green fluorescence intensity (a.u.) vs cell number. Calibration was assessed with CALIBRITE particles (Becton Dickinson) using the AutoCOMP computer program.
Cells were incubated for 24, 48 and 72 h with 072RB (10 µM) or Int (10 µM), together with FITC-LEDH-FMK or FITC-DEVD-FMK, to detect caspase 9 and caspase 3 activation, respectively (FACS analysis). […] Furthermore, caspase 3, a downstream substrate of caspase 9, was progressively activated at increasing incubation times with 072RB. After 24 h of incubation 30% of U937, 35% of Namalwa, 22% of Jurkat cells, respectively, were positive for activated caspase 3; after 72 h of incubation 70% of U937, 60% of Namalwa, and 35% of Jurkat cells, respectively, had activated caspase 3. On the contrary, a negligible fraction of cells incubated with the Int peptide (1-3%), a % similar to that observed in untreated cells, expressed activated caspase 3.

[1] = tested on: ALL: acute lymphoid leukaemia; assay: Ex vivo bone marrow cells, flow cytometry DNA/SSC analysis of apoptosis; settings: analysed day 4
Protocol: (§1) For experiments with primary cells of acute lymphoblastic leukaemia (ALL), […] Acute Myeloid Leukaemia (AML), fresh samples of bone marrow aspirates were from patients who had at least 80% blasts among their mononuclear cells. Normal hematopoietic cells (NBM) were obtained from healthy volunteers. Mononuclear cells were isolated from the samples by Ficoll density-gradient centrifugation. Primary cells were cultured as above. The collection of human specimens was performed after informed consent of the patient during diagnostic procedure. Viability was determined by Facs analysis: PI emission fluorescence.
(§2) Cells were harvested and incubated with 30 µg/ml PI (Sigma Chemical Co.) and 0.5 mg/ml RNase for 30 min at room temperature and in the dark. Flow cytometric measurements of Forward Scatter (FSC) and Side Scatter (SSC) of light emitted from the excitation laser, and of PI emission fluorescence, were performed on a FACSCalibur (Becton Dickinson) flow cytometer. At least 10,000 events were acquired on a linear scale from each sample. Frequency distributions of DNA content and SSC were analysed for the evaluation of apoptosis at different apoptotic stages and cell cycle phases, as previously described.
(§3) Bone marrow aspirates from patients with different leukaemia types were plated in tissue culture medium supplemented with 20% FCS, treated with 072RB twice every 48 h, and followed for 4 days. They were evaluated by flow cytometry DNA/SSC analysis, In Table 3 we show the percentage of [early + late apoptotic cells], according to leukaemia type and Int or 072RB dosage. To further study sensitivity to 072RB of normal cells, peripheral blood lymphocytes (PBL) isolated from four independent healthy donors were subjected to a four-days treatment with 10 µM 072RB. Treatment was performed, as usual, with two pulses at a 48 h interval. Lymphocytes were either un-stimulated or activated by PHA. […] Comparing treated and untreated normal peripheral lymphocytes, the ratio of viable cells between the two groups was 0.87 ± 0.05 (mean ± SE) for quiescent lymphocytes and 0.82 ± 0.057 for proliferating lymphocytes. This effect of 072RB on normal lymphocytes seems especially small if we consider the effects observed in leukaemia cell lines (see supplementary information), and also the effects observed in AML cells from ex vivo experiments: 0.55 ± 0.145 (mean ± SE). Table 3: Effect of 072RB on haematological malignancies (AML: acute myeloid leukaemia; ALL: acute lymphoid leukaemia; NBM: normal bone marrow): percentage of early/late apoptotic cells. Mean values from duplicate experiments are reported. The difference between the two individual values never exceeded 15% of the mean value. Ex vivo isolated cells were treated with either Int or 072RB at day 0, 2 (5, 10 µM), at day 0, 1, 2, 3 (1, 3 µM) and analysed after PI staining at day 4.

NBM: normal bone marrow = assay: as above; settings: analysed day 4
Protocol: as §1, §2, §3

[2] = tested on: AML: acute myeloid leukaemia; assay: as above; settings: for percentage of early/late apoptotic cells: AML, analysed day 4
Protocol: as §1, §2, §3

[3] = ALL, Pro-B (control 32), 5 µM at day 0, 2
[4] = ALL, Pro-B (control 32), 10 µM at day 0, 2
[5] = NBM sample with control 15, treated with 15 µM (footnote *), printed in the 10 µM column
[6] = NBM sample with control 39, 10 µM at day 0, 2
[7] = FAB M0 (control 33), 5 µM at day 0, 2
[8] = FAB M0 (control 33), 10 µM at day 0, 2
[9] = FAB M3 (control 23), 5 µM at day 0, 2
[10] = FAB M3 (control 23), 10 µM at day 0, 2

Molecule	fraction of cells expressing activated caspase 9 (caspase 9; Jurkat, 10 µM)	fraction of cells expressing activated caspase 9 (caspase 9; Namalwa, 10 µM)	fraction of cells expressing activated caspase 9 (caspase 9; U937, 10 µM)	percentage of early/late apoptotic cells [1, 3] [percentage]	percentage of early/late apoptotic cells [1, 4] [percentage]	percentage of early/late apoptotic cells (NBM: normal bone marrow; [5])	percentage of early/late apoptotic cells (NBM: normal bone marrow; [6]) [percentage]	percentage of early/late apoptotic cells [2, 7] [percentage]	percentage of early/late apoptotic cells [2, 8] [percentage]	percentage of early/late apoptotic cells [2, 9] [percentage]	percentage of early/late apoptotic cells [2, 10] [percentage]	also measured
CC[C@H](C)[C@H](NC(=O)[C@H](CCCNC(=N)N)NC(=O)[C@H](CCCNC(=N)N)NC(=O)[C@H](CC(C)C)NC(=O)[C@H](CCC(=O)O)NC(=O)[C@H](CCC(N)=O)NC(=O)C(C)(C)NC(=O)[C@@H](NC(=O)[C@H](Cc1ccc(O)cc1)NC(=O)[C@@H](NC(=O)[C@H](CCC(=O)O)NC(=O)[C@@H]1CCCN1C(=O)[C@H](CCCNC(=N)N)NC(=O)[C@H](CCSC)NC(=O)[C@@H](N)CC(=O)O)[C@@H](C)CC)[C@@H](C)CC)C(=O)NCC(=O)N[C@@H](CC(=O)O)C(=O)N[C@@H](C)C(=O)N[C@@H](Cc1ccccc1)C(=O)N[C@@H](CC(N)=O)C(=O)NC(C)(C)C(=O)N[C@@H](Cc1ccc(O)cc1)C(=O)N[C@@H](CCCCN)C(=O)N[C@@H](CCCCN)C(=O)N[C@@H](Cc1c[nH]c2ccccc12)C(=O)N[C@@H](CCCCN)C(=O)N[C@@H](CCSC)C(=O)N[C@@H](CCCNC(=N)N)C(=O)N[C@@H](CCCNC(=N)N)C(=O)N[C@@H](CC(N)=O)C(=O)N1CCC[C@H]1C(=O)N[C@@H](Cc1ccccc1)C(=O)N[C@@H](Cc1c[nH]c2ccccc12)C(=O)N[C@H](C(=O)N[C@@H](CCCCN)C(=O)N[C@H](C(=O)N[C@@H](CCC(N)=O)C(=O)N[C@@H](CCCNC(=N)N)C(N)=O)[C@@H](C)CC)[C@@H](C)CC [Peptide 072RB] (H-DMRPEIYI[Aib]QELRRIGDAFN[Aib]YKKWKMRRNPFWIKIQR-NH2; N-terminus and C-terminus assumed)	10-33%	15-35%	30-65%	56	63	21* percentage	39	36	42	64	82	percentage of early/late apoptotic cells ([1]; ALL sample with control 40, 5 µM at day 0, 2): 42 percentage; percentage of early/late apoptotic cells ([1]; ALL sample with control 40, 10 µM at day 0, 2): 45 percentage; percentage of early/late apoptotic cells ([1]; ALL sample with control 43, 5 µM at day 0, 2): 67 percentage; percentage of early/late apoptotic cells ([1]; ALL sample with control 52, 5 µM at day 0, 2): 60 percentage; percentage of early/late apoptotic cells ([1]; ALL sample with control 52, 10 µM at day 0, 2): 80 percentage; ratio of viable cells, treated versus untreated ([2]; AML cells from ex vivo experiments, mean ± SE): 0.55 ± 0.145; percentage of early/late apoptotic cells ([2]; FAB M0-M1 (control 14), 5 µM at day 0, 2): 22 percentage; percentage of early/late apoptotic cells ([2]; FAB M0-M1 (control 14), 10 µM at day 0, 2): 40 percentage; percentage of early/late apoptotic cells ([2]; FAB M2 (control 24), 5 µM at day 0, 2): 66 percentage; percentage of early/late apoptotic cells ([2]; FAB M4-M5 (control 50), 5 µM at day 0, 2): 75 percentage; percentage of early/late apoptotic cells ([2]; FAB M6 (control 15), 10 µM at day 0, 2): 67 percentage
KKWKMRRNPFWIKIQR [Int, internalisation tag, a modified Q50P 16 aa Antennapedia IIIrd α-helix, reference compound]	1.3%	2.0%	1.5%	32	43	18* percentage	37	32	38	26	28	

Source: EP1985629A1, “Pro-apoptotic molecules and therapeutic uses thereof” (UNIVERSITA DEGLI STUDI DI GENOVA, priority 2007, dated 2008)
